The values below come from ChEMBL document CHEMBL1139096, “HeLa cells apoptosis induced by 1,7-dimethyl-1,4,7,10-tetraazacyclododecane” (2007).

Assay [1] concerns HeLa. The experiment in a line: Cell cycle arrest in human HeLa cells assessed as accumulation at S phase at 50 umol/L after 72 hrs. The format is functional.
In assay [2] the test system is HeLa. The experiment in a line: Induction of apoptosis in human HeLa cells assessed as morphological changes at 200 umol/L. Format: functional, cell-based.
Assay [3] concerns A549. The experiment in a line: Induction of apoptosis in human A549 cells at 200 umol/L by flow cytometry. The format is functional.
For assay [4], the system named is HeLa. Put plainly: Cell cycle arrest in human HeLa cells assessed as accumulation at G0-G1 phase at 50 umol/L after 72 hrs. Format: functional.
Assay [5] has as its system HeLa. Put plainly: Growth inhibition of human HeLa cells at 0.1 mM by MTT assay. The format is functional. The following applies: read-out: GI. On the technique in general: Formazan colour is commonly taken as a measure of viable cells.
The test system of assay [6] is A549. The experiment in a line: Growth inhibition of human A549 cells at 0.1 uM by MTT assay. The format is functional. The following applies: read-out: GI.
Assay [7] concerns HeLa. Put plainly: Cell cycle arrest in human HeLa cells assessed as accumulation at G0-G1 phase at 300 umol/L after 72 hrs. Format: functional.
In assay [8] the test system is HeLa. The experiment in a line: Induction of apoptosis in human HeLa cells assessed as DNA fragmentation at 200 umol/L by electrophoresis. The format is functional, cell-based.
Assay [9] deals with HeLa. Put plainly: Induction of apoptosis in human HeLa cells assessed as morphological changes at 50 umol/L. Format: functional, cell-based.
Assay [10] deals with HeLa. The experiment in a line: Induction of apoptosis in human HeLa cells assessed as morphological changes at 100 umol/L. The format is functional, cell-based.
The test system of assay [11] is A549. The experiment in a line: Growth inhibition of human A549 cells at 0.1 mM by MTT assay. The format is functional. To be noted: read-out: GI.
Assay [12] has as its system HeLa. The experiment in a line: Cell cycle arrest in human HeLa cells assessed as accumulation at G2/M phase at 200 umol/L after 72 hrs. Format: functional.
Assay [13] concerns A549. Put plainly: Growth inhibition of human A549 cells at 1 uM by MTT assay. The format is functional. To be noted: read-out: GI.
For assay [14], the system named is HeLa. Put plainly: Growth inhibition of human HeLa cells at 1 uM by MTT assay. The following applies: read-out: GI. The format is functional.
For assay [15], the system named is HeLa. Put plainly: Induction of apoptosis in human HeLa cells at 300 umol/L by flow cytometry. The format is functional.
The test system of assay [16] is HeLa. The experiment in a line: Cell cycle arrest in human HeLa cells assessed as accumulation at S phase at 300 umol/L after 72 hrs. Format: functional.
In assay [17] the test system is HeLa. Put plainly: Growth inhibition of human HeLa cells at 0.1 uM by MTT assay. The format is functional.
In assay [18] the test system is HeLa. The experiment in a line: Cell cycle arrest in human HeLa cells assessed as accumulation at G2/M phase at 300 umol/L after 72 hrs. The format is functional.
For assay [19], the system named is A549. Put plainly: Growth inhibition of human A549 cells at 10 uM by MTT assay. The following applies: read-out: GI. The format is functional.
For assay [20], the system named is HeLa. The experiment in a line: Growth inhibition of human HeLa cells at 10 uM by MTT assay. The format is functional. To be noted: read-out: GI.

The source made the active and inactive calls. The rule behind the calls is not given here.

For the molecule `CN1CCNCCN(C)CCNCC1`, the Activity stood at 33.3% with HeLa [1]; 7% with A549 [3]; 60.5% in the assay with HeLa [4]; 84.7% in the assay on HeLa [7]; 25.2% with HeLa [12]; 55% with HeLa [15]. The results for the Activity in the assay on HeLa [16] and in the assay with HeLa [18] were 0% and 15.3%, respectively. Moreover, the result in the assay on HeLa [2], with HeLa [8] and in the assay with HeLa [10] was Active. Further, the inhibition of growth at 100 µM in the assay on HeLa [5] was 63.1%; in the assay on A549 [11], 53.6%. In addition, the inhibition of growth at 0.1 µM in the assay with A549 [6] came to 11%. Also, the result with HeLa [9] was inactive. Further, the inhibition of growth at 1 µM was found to be 13.7% with A549 [13] and 9.8% in the assay with HeLa [14]. Also, in the assay with HeLa [17], the growth inhibition (GI) came to 9%. The inhibition of growth at 10 µM stood at 22.4% in the assay on A549 [19] and 17.7% with HeLa [20].
